According to PubChem BioAssay AID342 (DTP/NCI, 2004):
“And” between values parts separate entries of the source, which are not always exact repeats. Equal entries are not always repeated.

System: Swiss mice, Sarcoma 180 sc, mean tumor weight T/C
Assay: NCI In Vivo Anticancer Drug Screen. Data for tumor model Sarcoma 180 (subcutaneous) in Swiss mice
Details: endpoint: mean tumor weight, higher = larger tumour
Procedure, shortened: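 T/C ratio: treated over vehicle-treated controls, measuring survival or tumor size in transplanted-tumor mice.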

[1] = dose: 222.0 mg/kg/injection, schedule: Q01DX007 (ip), vehicle: other
[2] = dose: 333.0 mg/kg/injection, schedule: Q01DX007 (ip), vehicle: other

## CC(C)=C(Br)CC[C@@H](C)[C@H]1CC[C@@]2(C)C3=C(CC[C@]12C)[C@@]1(C)CC[C@H](O)C(C)(C)[C@@H]1CC3
dose: 62.0 mg/kg/injection, schedule: Q01DX007 (sc), vehicle: steriod suspending solution
  T/C: 109 % of control
dose: 125.0 mg/kg/injection, schedule: Q01DX007 (sc), vehicle: steriod suspending solution
  T/C: 97 % of control
dose: 500.0 mg/kg/injection, schedule: Q01DX007 (sc), vehicle: steriod suspending solution
  T/C: 183 % of control

## O=C1c2ccccc2C(=O)N1CCF
dose: 4.0 mg/kg/injection, schedule: Q01DX007 (ip), vehicle: carboxymethylcellulose (CMC)
  T/C: 90 % of control
dose: 8.0 mg/kg/injection, schedule: Q01DX007 (ip), vehicle: carboxymethylcellulose (CMC)
  T/C: 72 % of control

## C[C@]12CCC(=O)C=C1CC[C@@H]1[C@@H]2[C@@H](O)C[C@@]2(C)[C@H]1CC[C@]2(O)C(=O)CF
dose: 25.0 mg/kg/injection, schedule: Q#A X014 (sc), vehicle: steriod suspending solution
  T/C: 55 % of control
dose: 125.0 mg/kg/injection, schedule: Q#A X014 (sc), vehicle: steriod suspending solution
  T/C: 43 % of control
dose: 148.0 mg/kg/injection, schedule: Q01DX007 (sc), vehicle: steriod suspending solution
  T/C: 36 % of control
dose: 222.0 mg/kg/injection, schedule: Q01DX007 (sc), vehicle: saline
  T/C: 26 % of control
dose: 222.0 mg/kg/injection, schedule: Q01DX007 (sc), vehicle: steriod suspending solution
  T/C: 19 % of control
dose: 250.0 mg/kg/injection, schedule: Q#A X014 (sc), vehicle: steriod suspending solution
  T/C: 43 % of control
dose: 333.0 mg/kg/injection, schedule: Q01DX007 (sc), vehicle: saline
  T/C: 25 % of control
dose: 500.0 mg/kg/injection, schedule: Q01DX007 (sc), vehicle: saline
  T/C: 21 % of control
dose: 750.0 mg/kg/injection, schedule: Q01DX007 (sc), vehicle: saline
  T/C: 20 % of control
dose: 1125.0 mg/kg/injection, schedule: Q01DX007 (sc), vehicle: steriod suspending solution
  T/C: 13 % of control

## Nc1c(Br)cc2c(c1Br)Cc1cc([N+](=O)[O-])ccc1-2
dose: 74.0 mg/kg/injection, schedule: Q01DX007 (ip), vehicle: other
  T/C: 77 % of control
dose: 111.0 mg/kg/injection, schedule: Q#A X014 (ip), vehicle: saline
  T/C: 27 % of control
dose: 148.0 mg/kg/injection, schedule: Q01DX007 (ip), vehicle: carboxymethylcellulose (CMC)
  T/C: 92 % of control
dose: 148.0 mg/kg/injection, schedule: Q01DX007 (ip), vehicle: other
  T/C: 96 % of control
dose: 148.0 mg/kg/injection, schedule: Q01DX007 (ip), vehicle: saline
  T/C: 56 % of control
dose: 166.5 mg/kg/injection, schedule: Q#A X014 (ip), vehicle: saline
  T/C: 21 % of control
[1]
  T/C: 42 % of control
dose: 222.0 mg/kg/injection, schedule: Q01DX007 (ip), vehicle: saline
  T/C: 64 % of control
dose: 250.0 mg/kg/injection, schedule: Q#A X014 (ip), vehicle: saline
  T/C: 21 % of control
[2]
  T/C: 40 % of control
dose: 333.0 mg/kg/injection, schedule: Q01DX007 (ip), vehicle: saline
  T/C: 67 % of control
dose: 500.0 mg/kg/injection, schedule: Q01DX007 (ip), vehicle: saline
  T/C: 54 % of control

## CC(=O)Nc1cc2c(cc1Br)-c1ccc(F)cc1C2
[1]
  T/C: 56 % of control
[2]
  T/C: 44 % of control
dose: 500.0 mg/kg/injection, schedule: Q01DX007 (ip), vehicle: other
  T/C: 22 % of control

## NC(Cc1cc(I)c(Oc2ccc(O)c(I)c2)c(I)c1)C(=O)O (configuration not stated)
dose: 0.1 micrograms/kg/injection, schedule: Q01DX007 (sc), vehicle: steriod suspending solution
  T/C: 103 % of control
dose: 1.0 micrograms/kg/injection, schedule: Q01DX007 (sc), vehicle: steriod suspending solution
  T/C: 95 % of control
dose: 10.0 micrograms/kg/injection, schedule: Q01DX007 (sc), vehicle: steriod suspending solution
  T/C: 156 % of control

## CC(=O)OCC(=O)[C@@]1(O)CC[C@H]2[C@@H]3CCC4=CC(=O)C=C[C@]4(C)[C@@]3(F)[C@@H](O)C[C@@]21C
dose: 20.0 mg/kg/injection, schedule: Q#A X014 (sc), vehicle: steriod suspending solution
  T/C: 32 % of control
dose: 30.0 mg/kg/injection, schedule: Q#A X014 (sc), vehicle: steriod suspending solution
  T/C: 32 % of control
dose: 45.0 mg/kg/injection, schedule: Q#A X014 (sc), vehicle: steriod suspending solution
  T/C: 30 % of control
dose: 67.5 mg/kg/injection, schedule: Q#A X014 (sc), vehicle: steriod suspending solution
  T/C: 24 % of control and 32 % of control
